Test results: patent US5656603A (Loyola University of Chicago, priority 1995, dated 1997)
Values joined by “and” are separate entries in the source; they are usually repeats but may differ in a detail not shown here. Equal values may be shown once. “Also recorded” adds a separate entry of the source. Blank lines part the entries; values can stand above or below the molecule they belong to.

Key:
[1] = molecular target: T1, partially purified human lung membrane-bound aminopeptidase P (Homo sapiens, UniProt O43895); test: Aminopeptidase P inhibition, release of arginine from Arg-Pro-Pro (fluorescent assay); type: biochemical; conditions: human lung aminopeptidase P; for IC50: cleavage of 0.5 μM Arg-Pro-Pro in 0.1M Hepes, pH 8.0 at 37° C.
T1 construct: from tissue; host or cells: human lung microsomes
Protocol: The IC50 of the compound of the present invention in relation to aminopeptidase P was also determined. […] The specificity of the compound of the present invention for other aminopeptidases was similarly determined as described in the Experimental Procedures herein.
(§1) Enzymes--Membrane-bound aminopeptidase P was purified to homogeneity from bovine lung (14) and from rat lung. Partially purified membrane-bound aminopeptidase P from human lung was obtained by treatment of lung microsomes with phosphatidylinositol-specific phospholipase C (B. thuringiensis) (ICN, Costa Mesa, Calif.) followed by centrifugation as described previously (14). Membrane dipeptidase was purified from rat lung microsomes (manuscript in preparation). Recombinant E. coli aminopeptidase P (22) and purified lamb kidney prolyl oligopeptidase (23) were generally supplied by Dr. Tadashi Yoshimoto (Nagasaki University). Purified porcine kidney prolidase and purified porcine kidney aminopeptidase M was obtained from Sigma (St. Louis, Mo.).
Enzyme Kinetics--Aminopeptidase P activity was determined by measuring the release of arginine from Arg-Pro-Pro by a fluorescent assay described previously (14). […] Each mixture was run in duplicate. Aliquots were removed from each incubation mixture at various times and assayed for the amount of arginine present to determine the reaction velocity. In general, reaction velocities were calculated from data representing less than 20% cleavage of substrate. Ki and Ki ' (=αKi) were determined from plots of 1/v versus concentration of inhibitor "i" (26) and S/v versus concentration of inhibitor "i" (27), respectively. These parameters were also determined from the slope replot and 1/v-intercept replot, respectively, of the 1/v versus 1/S plot (28). […] The values from the two treatments of the data were averaged for each experiment. Experiments for each enzyme preparation were performed twice and the results averaged.

[2] = molecular target: T2, purified bovine lung membrane-bound aminopeptidase P (Bos taurus, UniProt E1B735); test: as above; type: biochemical; conditions: bovine lung aminopeptidase P; cleavage of 0.5 μM Arg-Pro-Pro in 0.1M Hepes, pH 8.0 at 37° C.
T2 construct: from tissue; host or cells: bovine lung
T2 sequence (E1B735 22-673): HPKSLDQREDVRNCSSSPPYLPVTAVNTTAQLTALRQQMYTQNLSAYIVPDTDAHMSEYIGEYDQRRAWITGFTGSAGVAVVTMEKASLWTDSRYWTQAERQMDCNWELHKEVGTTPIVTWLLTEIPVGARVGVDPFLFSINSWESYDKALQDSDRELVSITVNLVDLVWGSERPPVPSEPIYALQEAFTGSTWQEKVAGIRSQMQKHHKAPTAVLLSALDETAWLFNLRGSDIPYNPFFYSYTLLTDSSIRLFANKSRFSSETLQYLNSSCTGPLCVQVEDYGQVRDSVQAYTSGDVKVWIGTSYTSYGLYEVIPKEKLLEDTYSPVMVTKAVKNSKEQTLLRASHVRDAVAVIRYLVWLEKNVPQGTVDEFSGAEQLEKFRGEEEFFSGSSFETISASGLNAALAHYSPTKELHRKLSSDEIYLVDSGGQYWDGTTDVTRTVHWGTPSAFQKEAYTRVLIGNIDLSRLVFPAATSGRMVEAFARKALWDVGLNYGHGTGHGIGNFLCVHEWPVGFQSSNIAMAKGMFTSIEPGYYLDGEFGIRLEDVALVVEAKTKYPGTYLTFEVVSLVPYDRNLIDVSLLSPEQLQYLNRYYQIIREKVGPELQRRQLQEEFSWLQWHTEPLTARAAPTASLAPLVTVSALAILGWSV
Protocol: The IC50 of the compound of the present invention in relation to aminopeptidase P was also determined. […] The specificity of the compound of the present invention for other aminopeptidases was similarly determined as described in the Experimental Procedures herein. […] The following enzymes had IC50 values>800 μM: aminopeptidase A, angiotensin converting enzyme, dipeptidyl-peptidase I-like activity, bestatin-sensitive/amastatin-insensitive membrane dipeptidase (29), microsomal dipeptidase, endopeptidase 24.11, endopeptidase 24.15, and prolyl oligopeptidase.
as §1
Enzyme Kinetics--Aminopeptidase P activity was determined by measuring the release of arginine from Arg-Pro-Pro by a fluorescent assay described previously (14). […] Each mixture was run in duplicate. Aliquots were removed from each incubation mixture at various times and assayed for the amount of arginine present to determine the reaction velocity. In general, reaction velocities were calculated from data representing less than 20% cleavage of substrate. Ki and Ki ' (=αKi) were determined from plots of 1/v versus concentration of inhibitor "i" (26) and S/v versus concentration of inhibitor "i" (27), respectively. These parameters were also determined from the slope replot and 1/v-intercept replot, respectively, of the 1/v versus 1/S plot (28). See e.g., FIG. 1B. The values from the two treatments of the data were averaged for each experiment. Experiments for each enzyme preparation were performed twice and the results averaged.

[3] = system: [3H]-bradykinin degradation in the isolated perfused rat lung; test: [3H]-bradykinin degradation in the isolated perfused rat lung (HPLC of perfusate)
Protocol: Using the procedure described herein, under Experimental Procedures it was determined that aminopeptidase P contributed to Bk degradation in the mammalian lung. In that procedure, [^3 H]-Bk (labelled in Pro^2 and Pro^3) was perfused through the isolated lung in the presence or absence of various peptidase inhibitors. The perfusate was then analyzed for radiolabelled products by HPLC. […] Most of the radioactivity (an average of 79%) was in the form of [^3 H]-Pro-Pro [Bk(2-3)] with the remainder being [^3 H]-Bk(1-5). It was hypothesized that pulmonary vascular aminopeptidase P was cleaving the Arg'-Pro^2 bond followed by rapid removal of Pro-Pro by dipeptidylpeptidase IV (DPP IV) (12). Simultaneously, angiotensin converting enzyme (ACE) was sequentially removing Phe-Arg and Ser-Pro from the C-terminus (13). […] However, most of the radioactivity remained in the Pro-Pro peak indicating substantial cleavage of Bk at the N-terminal end.
Perfusion of the Isolated Rat Lung--Male Sprague Dawley rats, weighing 300-500 grams, were anesthetized with sodium pentobarbital (50-75 mg/kg) given by intraperitoneal injection. The trachea was cannulated and the lungs ventilated with air at 70 cycles per minute (Harvard Small Animal Ventilator) at a pressure of 70 mm H2 O. The heart and lungs were exposed via midsternal incision and 1000 units of heparin were administered intracardially. Polyethylene cannulae were secured into the pulmonary artery and the left ventricle. A modified Krebs buffer (118.5 mM NaCl, 4.7 mM KCl, 1.1 mM KH2 PO4, 1.1 mM MgSO4, 2.5 mM CaCl2, 19.6 mM NaHCO3, 5.6 mM dextrose), which was kept in a 50° C. water bath and aerated with 95% O2 -5% CO2 to pH 7.35, was perfused into the pulmonary artery at 35° C. and 2.6 ml/min (LKB Microperplex peristaltic pump). The buffer was circulated through the isolated lung in situ until the effluent was free of blood. The surgical field was maintained at 37° .C with a heat lamp throughout the procedure. Experiments were conducted by introducing [^3 H]-Bk in the presence or absence of test peptidase inhibitors into the pulmonary circulation via the pulmonary artery and then collecting perfusion effluent from the left ventricular cannula. […] The lung was then perfused with 1 μCi [^3 H]-Bk in 1 ml of the inhibitor solution (giving 16 nM Bk) followed by inhibitor solution alone. Effluent was collected in tubes (0.5 min/fraction) containing 150 μl of 2% TFA. For each lung preparation, 5-6 samples were perfused over a period of about one hour. Control perfusions of [^3 H]-Bk alone were always carried out before perfusions of samples containing ramiprilat because of the slow reversibility of inhibition of ACE by this compound. […] The effects of the latter two inhibitors were reversible.
Separation and Identification of Bradykinin Metabolites--The fractions which were collected from each perfusion sample run were counted for radioactivity, and the fraction having the highest radioactive counts was prepared for HPLC by filtration through a Centricon-10 microconcentrator (Amicon). An aliquot of the filtrate containing 25000 dpm (approx. 25 μl) was spiked with a cocktail of unlabelled Bk fragments (3 μl) and then subjected to HPLC using a Waters Radial Compression Separation System with a 5μ NOVA PAK C18 Radial Pak Cartridge. The column was developed at a flow rate of 1 ml/min with a 60 min linear gradient from 100% Solvent A (0.1% TFA in water) to 75% Solvent A: 25% Solvent B (0.08% TFA in acetonitrile) using a Spectra Physics 8700XR Solvent Delivery System. The column effluent was simultaneously monitored for absorbance at 206 nm (LKB Uvicord S) and for radioactivity (Radiomatic Flo-One HS Radioactive Flow Detector using Ultima-Flo M scintillation fluid from Packard, Meriden, Conn.). […] Radioactive peaks were identified by comparison of the retention times to those of the unlabelled standards. […]

[4] = system: membrane-bound aminopeptidase P; test: partially purified human lung membrane-bound aminopeptidase P in 0.1 M Hepes, pH 8.0; conditions: 39° C.
[5] = isolated perfused rat lung, modified Krebs buffer; conditions: Male Sprague Dawley rats, 35° C.

T1 sequence (O43895 22-674): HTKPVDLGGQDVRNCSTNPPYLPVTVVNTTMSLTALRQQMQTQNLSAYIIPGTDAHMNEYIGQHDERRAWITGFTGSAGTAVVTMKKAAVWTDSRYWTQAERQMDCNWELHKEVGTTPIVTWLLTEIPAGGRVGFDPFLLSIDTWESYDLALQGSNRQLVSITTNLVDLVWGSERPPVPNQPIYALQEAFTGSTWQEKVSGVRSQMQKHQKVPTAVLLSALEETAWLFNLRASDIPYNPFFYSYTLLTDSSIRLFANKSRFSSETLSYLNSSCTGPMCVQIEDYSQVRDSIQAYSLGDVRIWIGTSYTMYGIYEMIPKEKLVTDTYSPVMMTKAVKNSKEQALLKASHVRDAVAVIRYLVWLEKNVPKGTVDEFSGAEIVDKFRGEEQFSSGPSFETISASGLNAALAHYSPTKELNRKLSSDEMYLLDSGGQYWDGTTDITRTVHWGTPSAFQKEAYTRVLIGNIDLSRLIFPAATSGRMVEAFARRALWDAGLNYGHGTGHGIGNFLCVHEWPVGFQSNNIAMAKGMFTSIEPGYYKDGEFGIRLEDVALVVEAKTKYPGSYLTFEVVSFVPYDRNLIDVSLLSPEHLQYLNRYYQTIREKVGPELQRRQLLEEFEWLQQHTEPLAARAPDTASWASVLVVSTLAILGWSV

- IC50 [1]: 430 nM
- IC50 [2]: 2100 nM
Molecule: CC(C)C[C@H](N)[C@@H](O)C(=O)N1CCC[C@H]1C(=O)N1CCC[C@H]1C(=O)N[C@@H](C)C(N)=O [(2R,3S), N-[(2R,3S)-3-amino-2-hydroxy-5-methylhexanoyl]-L-prolyl-L-prolyl-L-alaninamide]

- IC50 [1]: 230 nM
- IC50 relative to the IC50 of apstatin ([1]; versus apstatin […]): approximately ten-fold
- IC50 [2]: 4500 nM
Molecule: CC(C)C[C@@H](N)[C@H](O)C(=O)N1CCC[C@H]1C(=O)N1CCC[C@H]1C(=O)N[C@@H](C)C(N)=O [(2S,3R), N-[(2S,3R)-3-amino-2-hydroxy-5-methylhexanoyl]-L-prolyl-L-prolyl-L-alaninamide]

Molecule: CC(C)C[C@@H](N)[C@H](O)C(=O)N[C@H](C(=O)N[C@H](C(=O)N[C@@H](CC(=O)O)C(=O)O)C(C)C)C(C)C [amastatin, [(2S, 3R)-3-amino-2-hydroxy-5-methylhexanoyl]-Val-Val-Asp]
- effect on the pattern of metabolites ([3]; 100 μM along with ramiprilat in the perfusion medium (data not shown)): no significant effect

Molecule: CC[C@H](C)[C@H](N)C(=O)N1CCC[C@H]1C(=O)N[C@H](C(=O)O)[C@@H](C)CC [diprotin A, Ile-Pro-Ile]
- form of radioactivity eluted from the lung ([3]; diprotin A present along with ramiprilat (data not shown)): most of the radioactivity eluted from the lung in the form of [^3 H]-Bk(2-9)

Molecule: C[C@H](N[C@@H](CCc1ccccc1)C(=O)O)C(=O)N1[C@H](C(=O)O)C[C@@H]2CCC[C@@H]21 [ramiprilat]
- percentage of radioactivity eluting from the lung as intact [3H]-Bk ([3]; ramiprilat (0.5 μM) alone in the perfusion medium, mean ± SEM, three rats): 22±6% and 22%
- fold increase of intact [3H]-Bk eluting from the lung ([3]; ramiprilat alone versus no inhibitor (unmeasurable levels)): ≥ 22 fold

- cleaved bond [4]: Arg-Pro
Molecule: Arg-Pro-Pro

Molecule: [2,3-Prolyl-3,4-^3 H(N)]-bradykinin
- cleaved bond [5]: rapid removal of Pro-Pro by dipeptidylpeptidase IV (DPP IV); also recorded: Pro7-Phe8; also recorded: removing Ser-Pro from the C-terminus (after Phe-Arg); also recorded: Arg1-Pro2, major; also recorded: [^3 H]-Pro-Pro arose by DPP IV cleavage of [^3 H]-Bk(2-9)
- fragment found [5]: [^3 H]-Bk(1-5), major; also recorded: [^3 H]-Pro-Pro, minor
- not cleaved [5]: no [^3 H]-Bk(1-7) was observed in the perfusate
